Assay [1] concerns cariogenic plaque bacteria (standard strains). Put plainly: Inhibitory effect of bacterial growth, standard strains. It counts as cell-based, Streptococcus, Lactobacillus and Actinomyces. How it is done: In order to evaluate how medium-chain fatty acids influence bacterial growth of cariogenic plaque bacteria, the influence on each bacteria was evaluated after selecting seven kinds of bacterial strains as standard bacteria among cariogenic plaque bacteria. […] The results that medium-chain fatty acids have on influencing bacterial growth of cariogenic plaque bacteria is shown in FIG. 3. And the result of measuring inhibitory effect of bacterial growth of 20 kinds of cariogenic plaque bacteria separated from the human oral cavities is shown in FIG. 4.

The subject of assay [2] is S. mutans 10449. Nature of the assay: Inhibitory effect on extracellular polysaccharide synthesis, standard strain. Conditions: 1 mM. It counts as cell-based, Streptococcus mutans. How it is done:
(§1) In order to identify the effect by which medium-chain fatty acids inhibit plaque matrix formation, inhibitory effect and concentration of extracellular polysaccharide synthesis were determined in seven kinds of standard cariogenic plaque bacteria. Also, the inhibitory effect of extracellular polysaccharide synthesis for 20 kinds of cariogenic plaque bacteria, separated from the human oral cavity, was measured. Liquid culture media used were: Todd-Hewitt broth of Streptococcus, Lactobacilli MRS broth of Lactobacillus and Brain Heart Infusion broth of Actinomyces. 0.1 ml of bacterial (or cell) suspension (OD600 =0.5) of each bacteria was inoculated to 5.9 ml of culture media containing 1 mM of medium-chain fatty acids and 2% of glucose, and was cultured for 24^~ 48 hours in 10% CO2 incubator. After culturing, the resultant was centrifuged to precipitate at 5,000×g for 15 minutes, then soluble extracellular polysaccharide was separated and purified from the supernatant and insoluble extracellular polysaccharide from the cell pellet, and then these were quantified.

Assay [3] deals with S. mutans JC-2. The description is as above. It is filed as cell-based, Streptococcus mutans. As to conditions: 1 mM. The procedure: as §1
Assay [4] concerns S. mutans BHT. The assay is described as above. It counts as cell-based, Streptococcus mutans. As to conditions: 1 mM. How it is done: as §1
The test system of assay [5] is cariogenic plaque bacteria. Put plainly: Inhibitory effect on extracellular polysaccharide synthesis (summary). It counts as cell-based, Streptococcus, Lactobacillus and Actinomyces. As to conditions: 1 mM. The procedure: as §1, with “quantified. So the experimental results that represent inhibitory effect of medium-chain fatty acids upon extracellular polysaccharide synthesis, are shown in table 1, 2, 3 and 4.” for “quantified.”

Assay [6] has as its system S. sanguis 10556. Put plainly: Inhibitory effect on extracellular polysaccharide synthesis, standard strain. Conditions: 1 mM. It counts as cell-based. How it is done: as §1
The subject of assay [7] is A. viscosus ATCC 15987. The assay is described as above. It counts as cell-based. As to conditions: 1 mM. How it is done:
as §1

Assay [8] deals with cariogenic plaque bacteria separated from human oral cavities. Put plainly: Extracellular polysaccharide synthesis, 20 kinds of bacteria separated from human oral cavities (summary). It counts as cell-based. As to conditions: 1 mM. How it is done:
as §1, with “quantified. So the experimental results that represent inhibitory effect of medium-chain fatty acids upon extracellular polysaccharide synthesis, are shown in table 1, 2, 3 and 4.” for “quantified.”

Turning to `CCCCCCCCCCCC(=O)[O-].[Na+]` [C12, sodium laurate], the “inhibitory effect of bacterial growth (in words)” value in assay [1] (0.5-8 mM, pH 5.0 and 7.0, OD 600 nm, 24-48 hours) was “almost completely inhibits”. In assay [1] (ranking, FIG. 3), the “inhibitory effect of bacterial growth, sequence” value is on record as “sodium laurate>sodium capriate>sodium nonanoate”. Also, the “Extracellular polysaccharide, insoluble” value in assay [2] (2% glucose, 24-48 hours, control 0.8 ± 0.3) is 0.2 ± 0.1 µg/mL; in assay [3] (2% glucose, 24-48 hours, control 1.1 ± 0.2) it was 0.1 ± 0.1 µg/mL; in assay [7] (2% glucose, 24-48 hours, control 2.1 ± 0.2), 0.2 ± 0.1 µg/mL. Moreover, the “Extracellular polysaccharide, soluble” value in assay [2] (2% glucose, 24-48 hours, control 74.6 ± 1.8) is 15.5 ± 3.8 µg/mL; in assay [3] (2% glucose, 24-48 hours, control 34.4 ± 3.9) it was 0.6 ± 0.5 µg/mL; in assay [4] (2% glucose, 24-48 hours, control 31.5 ± 3.7) it was 4.1 ± 0.8 µg/mL; in assay [6] (2% glucose, 24-48 hours, control 25.9 ± 4.3), 12.2 ± 0.9 µg/mL; in assay [7] (2% glucose, 24-48 hours, control 222.8 ± 3.3), 25.3 ± 1.7 µg/mL. Besides, the “Inhibitory rate, soluble” value in assay [2] (vs control) turned out to be 79%; in assay [3] (vs control) it was 98%; in assay [4] (vs control) it was 87%; in assay [6] (vs control), 53%; in assay [7] (vs control), 89%. For the same compound, the “inhibitory effect of extracellular polysaccharide synthesis (in words)” value in assay [5] is listed as “inhibited in the highest degree”. Further, the “inhibitory effect of extracellular polysaccharide synthesis, sequence” value in assay [5] (ranking) is on record as “sodium laurate>sodium capriate>sodium nonanoate”. The “inhibition of soluble extracellular polysaccharide synthesis (in words)” value in assay [8] is listed as “noticeably inhibits soluble extracellular polysaccharide synthesis”.

These data come from patent US6180599A, “Pharmaceutical composition, containing medium-chain fatty acids as active ingredients, for dental caries and periodontal disease” (priority 1997, dated 2001).
